Reference: ChEMBL document CHEMBL1201862, “PubChem BioAssay data set” (2004)
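Compound exposure: 48 hours, 5 concentrations, 96-well plates. GI50: concentration for 50% inhibition of growth.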 The source made the active and inactive calls. Rule as the data show it: active = GI50 up to about 1.1 µM and inactive = higher.

Key:
Assay in all cases: NCI tumour cell line growth inhibition, 48 h
SW-620 = system: SW-620
SN12C = system: SN12C
RXF 393 = system: RXF 393
KM-20L2 = system: KM-20L2
SK-OV-3 = system: SK-OV-3
OVCAR-5 = system: OVCAR-5
DLD-1 = system: DLD-1
RPMI-8226 = system: RPMI-8226
HOP-92 = system: HOP-92
HOP-62 = system: HOP-62
SK-MEL-5 = system: SK-MEL-5
OVCAR-3 = system: OVCAR-3
HCT-116 = system: HCT-116
SNB-78 = system: SNB-78
MOLT-4 = system: MOLT-4
Malme-3M = system: Malme-3M
OVCAR-4 = system: OVCAR-4
K562 = system: K562
UACC-257 = system: UACC-257
IGROV-1 = system: IGROV-1
SNB-19 = system: SNB-19
UO-31 = system: UO-31
KM12 = system: KM12
XF498 = system: XF498
A549 = system: A549
SK-MEL-2 = system: SK-MEL-2
HCT-15 = system: HCT-15
U-251 = system: U-251
UACC-62 = system: UACC-62
NCI/ADR-RES = system: NCI/ADR-RES
SF-295 = system: SF-295
NCI-H226 = system: NCI-H226
EKVX = system: EKVX
LOX IMVI = system: LOX IMVI
M19-MEL = system: M19-MEL
SF-268 = system: SF-268
HOP-18 = system: HOP-18
DMS-114 = system: DMS-114
SK-MEL-28 = system: SK-MEL-28
A498 = system: A498
CCRF-CEM = system: CCRF-CEM
SNB-75 = system: SNB-75
DMS-273 = system: DMS-273
SF-539 = system: SF-539
OVCAR-8 = system: OVCAR-8
NCI-H23 = system: NCI-H23
MCF7 = system: MCF7
HCC 2998 = system: HCC 2998
COLO 205 = system: COLO 205
HL-60 = system: HL-60
NCI-H460 = system: NCI-H460
NCI-H522 = system: NCI-H522
HT-29 = system: HT-29
LXFL 529 = system: LXFL 529
786-0 = system: 786-0
M14 = system: M14
TK-10 = system: TK-10
CAKI-1 = system: CAKI-1
ACHN = system: ACHN
SR = system: SR

Measured: GI50

Nc1cc2c(cc1[N+](=O)[O-])[nH]c1c(-c3ccccc3)nccc12
12 µM: HCT-15
inactive: SW-620 25.9 µM | SN12C 22.3 µM | RXF 393 19.9 µM | KM-20L2 23.6 µM | SK-OV-3 10.9 µM | OVCAR-5 27.1 µM | DLD-1 8.2 µM | RPMI-8226 8.24 µM | HOP-92 12 µM | HOP-62 15.2 µM | SK-MEL-5 13.5 µM | OVCAR-3 19.1 µM | HCT-116 15.3 µM | SNB-78 11.2 µM | MOLT-4 4.43 µM | Malme-3M 17.4 µM | OVCAR-4 12.8 µM | K562 7.57 µM | UACC-257 18 µM | IGROV-1 8.65 µM | SNB-19 23.8 µM | UO-31 5.77 µM | KM12 15.8 µM | XF498 40 µM | A549 17.4 µM | SK-MEL-2 20.2 µM | U-251 18.8 µM | UACC-62 13.6 µM | NCI/ADR-RES 14.1 µM | SF-295 21.7 µM | NCI-H226 17 µM | EKVX 21.7 µM | LOX IMVI 13.6 µM | M19-MEL 17.7 µM | SF-268 25.2 µM | HOP-18 8.41 µM | DMS-114 12.7 µM | SK-MEL-28 27.1 µM | A498 30.5 µM | CCRF-CEM 7.71 µM | SNB-75 19.2 µM | DMS-273 18.1 µM | SF-539 24.4 µM | OVCAR-8 30.8 µM | NCI-H23 18.7 µM | MCF7 26 µM | HCC 2998 13.2 µM | COLO 205 20.7 µM | HL-60 11.8 µM | NCI-H460 15.8 µM | NCI-H522 12 µM | HT-29 14.5 µM

COc1ccc(C(=O)c2c(C(C(=O)c3ccc(OC)cc3)C(=O)c3ccc(OC)cc3)n(C(=O)c3ccc(OC)cc3)c3ccccc23)cc1
> 100 µM: HCT-15
inactive: SW-620 > 100 µM | SN12C > 100 µM | RXF 393 > 100 µM | KM-20L2 > 100 µM | SK-OV-3 > 100 µM | OVCAR-5 > 100 µM | DLD-1 > 100 µM | RPMI-8226 > 100 µM | HOP-92 > 100 µM | HOP-62 > 100 µM | SK-MEL-5 > 100 µM | LXFL 529 > 100 µM | OVCAR-3 > 100 µM | HCT-116 > 100 µM | SNB-78 > 100 µM | MOLT-4 > 100 µM | Malme-3M > 100 µM | OVCAR-4 > 100 µM | K562 > 100 µM | 786-0 > 100 µM | M14 > 100 µM | IGROV-1 > 100 µM | SNB-19 > 100 µM | UO-31 > 100 µM | KM12 > 100 µM | XF498 > 100 µM | A549 > 100 µM | TK-10 > 100 µM | SK-MEL-2 > 100 µM | U-251 > 100 µM | UACC-62 > 100 µM | SF-295 > 100 µM | NCI-H226 > 100 µM | EKVX > 100 µM | LOX IMVI > 100 µM | CAKI-1 > 100 µM | M19-MEL > 100 µM | SF-268 > 100 µM | DMS-114 > 100 µM | SK-MEL-28 > 100 µM | A498 > 100 µM | CCRF-CEM > 100 µM | SNB-75 > 100 µM | ACHN > 100 µM | DMS-273 > 100 µM | SF-539 > 100 µM | OVCAR-8 > 100 µM | NCI-H23 > 100 µM | HCC 2998 > 100 µM | COLO 205 > 100 µM | HL-60 > 100 µM | NCI-H460 > 100 µM | NCI-H522 > 100 µM | SR > 100 µM | HT-29 > 100 µM

O=C(N/C(=C\c1ccc(/C=C(\NC(=O)c2ccccc2)c2nc3cc(Cl)ccc3[nH]2)cc1)c1nc2cc(Cl)ccc2[nH]1)c1ccccc1
21.4 µM: HCT-15
inactive: SW-620 55 µM | SN12C 30.1 µM | RXF 393 13.4 µM | KM-20L2 18 µM | SK-OV-3 > 100 µM | OVCAR-5 > 100 µM | DLD-1 27.7 µM | RPMI-8226 3.99 µM | HOP-92 35.1 µM | HOP-62 63.4 µM | SK-MEL-5 17.4 µM | LXFL 529 22.9 µM | OVCAR-3 22.4 µM | HCT-116 17.7 µM | SNB-78 > 100 µM | MOLT-4 3.89 µM | Malme-3M 87.9 µM | OVCAR-4 20.2 µM | K562 12 µM | 786-0 25.6 µM | UACC-257 36.4 µM | M14 26.9 µM | IGROV-1 46 µM | SNB-19 51.9 µM | UO-31 25.2 µM | KM12 14 µM | XF498 35.1 µM | A549 24.9 µM | TK-10 28.6 µM | SK-MEL-2 36.7 µM | U-251 39.6 µM | UACC-62 16.6 µM | SF-295 28.4 µM | NCI-H226 > 100 µM | EKVX 29 µM | LOX IMVI 25.9 µM | CAKI-1 40.9 µM | M19-MEL 32.2 µM | SF-268 11.8 µM | HOP-18 8.91 µM | DMS-114 22.9 µM | SK-MEL-28 17.5 µM | A498 22.9 µM | CCRF-CEM 5.31 µM | SNB-75 24.4 µM | ACHN 26.9 µM | DMS-273 13.8 µM | SF-539 20.6 µM | OVCAR-8 27.7 µM | NCI-H23 27.7 µM | COLO 205 24.3 µM | NCI-H460 29.7 µM | NCI-H522 13.6 µM | HT-29 26.3 µM
